Experimental data published in US20100120778A1, “QUINOXALINE-BASED LXR MODULATORS” (Wyeth, priority 2008, published 2010).
Where two headings read alike, the source gives them in different places.

Tests used:
human LXRβ = molecular target: T1, human LXRβ (Homo sapiens, UniProt P55055); assay: Ligand-binding test procedure for human LXRβ (3H T0901317 tracer, flash plates); conditions: biotinylated hLXRβ, tracer 3H T0901317, +4° C. over night
T1 construct: biotin (biotinylated); made in house; host or cells: E. coli
T1 sequence (P55055 1-460): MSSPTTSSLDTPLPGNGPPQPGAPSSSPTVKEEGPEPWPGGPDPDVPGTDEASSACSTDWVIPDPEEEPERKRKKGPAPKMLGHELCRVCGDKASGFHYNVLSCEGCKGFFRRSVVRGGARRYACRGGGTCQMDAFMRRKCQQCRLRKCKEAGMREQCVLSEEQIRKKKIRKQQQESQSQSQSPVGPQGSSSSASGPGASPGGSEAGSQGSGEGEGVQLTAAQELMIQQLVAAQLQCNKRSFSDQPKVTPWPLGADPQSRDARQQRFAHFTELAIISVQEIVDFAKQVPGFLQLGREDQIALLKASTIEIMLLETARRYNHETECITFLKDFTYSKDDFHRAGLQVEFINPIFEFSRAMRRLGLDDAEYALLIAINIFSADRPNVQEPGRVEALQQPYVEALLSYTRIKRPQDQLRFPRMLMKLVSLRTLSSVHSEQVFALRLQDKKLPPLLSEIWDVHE

human LXRα = molecular target: T2, human LXRα (Homo sapiens, UniProt Q13133); assay: Ligand-binding test procedure for human LXRα (3H T0901317 tracer, flash plates); conditions: biotinylated hLXRα, tracer 3H T0901317, +4° C. over night
T2 construct: biotin (biotinylated); made in house; host or cells: E. coli
T2 sequence (Q13133 1-447): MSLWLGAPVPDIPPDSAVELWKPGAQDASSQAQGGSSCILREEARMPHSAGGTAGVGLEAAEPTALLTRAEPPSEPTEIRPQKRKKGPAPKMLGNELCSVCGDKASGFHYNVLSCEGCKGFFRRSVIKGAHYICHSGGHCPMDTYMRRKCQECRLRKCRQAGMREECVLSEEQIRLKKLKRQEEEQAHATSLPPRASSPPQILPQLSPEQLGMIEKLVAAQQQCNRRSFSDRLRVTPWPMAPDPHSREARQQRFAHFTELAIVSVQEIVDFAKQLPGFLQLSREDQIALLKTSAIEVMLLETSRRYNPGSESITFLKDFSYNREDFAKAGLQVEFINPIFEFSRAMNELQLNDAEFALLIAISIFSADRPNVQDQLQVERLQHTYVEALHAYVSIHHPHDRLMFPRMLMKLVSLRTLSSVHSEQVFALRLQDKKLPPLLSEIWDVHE
Experimental: II. Ligand-Binding Test Procedure for Human LXRα.
Receptor source: E. coli extract from cells expressing biotinylated hLXRα. Extract was made in a similar buffer as above, but with 50 mM TRIS.
Washed streptavidin and coated flash plates with wash buffer. Diluted receptor extract to give Bmax˜4000 cpm and add to the wells. Wrapped the plates in aluminum foil and stored them at +4° C. over night.
Made a dilution series in DMSO of the test ligands. Made a 5 nM solution of the radioactive tracer in buffer. Mixed 250 μl diluted tracer with 5 μl of the test ligand from each concentration of the dilution series. Washed the receptor-coated flash plates. Added 200 μl per well of the ligand/radiolabel mixture to the receptor-coated flash plates. Wrapped the plates in aluminum foil and incubate at +4° C. over night.
Aspirated wells, and wash the flashed plates. Sealed the plate. Measured the remaining radioactivity in the plate.

[1] = tested on: ABCA1 gene (regulation by LXR) in THP-1 cells; assay: Quantitative analysis of ABCA1 gene regulation in THP-1 cells (real-time RT-PCR); assay type: cell-based, human; conditions: for Agonism ABCA1: LXR agonist reference at 1.0 uM as positive control; for EC50: Homo sapiens, read-out: EC50 ABCA1
Experimental: III. Quantitative Analysis of ABCA1 Gene Regulation In THP-1 Cells. The compounds of formula (I) effect on the regulation of the ABCA1 gene was evaluated using the following procedure. Materials and Methods Cell culture: The THP-1 monocytic cell line (ATCC # TIB-202) was obtained from American Type Culture Collection (Manassas, Va.) and cultured in RPMI 1640 medium (Gibco, Carlsbad, Calif.) containing 10% FBS, 2 mM L-glutamine, and 55 uM beta-Mercaptoethanol (BME). […] Louis, Mo.) for three days to induce differentiation into adherent macrophages. Differentiated THP-1 cells were treated with test compounds or ligands dissolved in DMSO (Sigma, D-8779) in culture medium lacking phorbal ester. […] Dose response effects were measured in duplicate, in the range of 0.001 to 30 micromolar concentrations and treated cells were incubated for an additional 18 hrs prior to RNA isolation. Unstimulated cells treated with vehicle were included as negative controls on each plate. […] L., J. Med. Chem. (2000), 45:1963-1966.). Results of antagonist analysis are expressed as % antagonism and IC50 (in μM). RNA isolation and quantitation: Total cellular RNA was isolated from treated cells cultured in 96-well plates using PrepStation 6100 (Applied Biosystems, Foster City, Calif.), according to the manufacturer's recommendations. RNA was resuspended in ribonuclease-free water and stored at -70° C. prior to analysis. RNA concentrations were quantitated with RiboGreen test procedure, #R-11490 (Molecular Probes, Eugene, Oreg.). Gene expression analysis: Gene-specific mRNA quantitation was performed by real-time PCR with the Perkin Elmer Corp. chemistry on an ABI Prism 7700 Sequence detection system (Applied Biosystems, Foster City, Calif.) according to the manufacturer's instructions. Samples (50-100 ng) of total RNA were assayed in duplicate or triplicate in 50 μl reactions using one-step RT-PCR and the standard curve method to estimate specific mRNA concentrations. Sequences of gene-specific primer and probe sets were designed with Primer Express Software (Applied Biosystems, Foster City, Calif.). The human ABCA1 primer and probe sequences are: forward, [NT], reverse, [NT], and probe, 6[…] and PCR reactions were performed according to PE Applied Biosystem's protocol for Taqman Gold RT-PCR or Qiagen's protocol for Quantitect probe RT-PCR. Relative levels of ABCA1 mRNA are normalized using GAPDH mRNA or 18S rRNA probe/primer sets purchased commercially (Applied Biosystems, Foster City, Calif.). Statistics: Mean, standard deviation and statistical significance of duplicate evaluations of RNA samples were assessed using ANOVA, one-way analysis of variance using SAS analysis.

[2] = Gene regulation by LXR (THP1), differentiated THP-1 cells, 18 hrs
[3] = Gene regulation by LXR (THP1), differentiated THP-1 cells, 18 hrs, ABCA1 mRNA

| Structure (SMILES) | IC50 (human LXRβ) [nM] | IC50 (human LXRα) [nM] | Agonism ABCA1 [1, 2] [%] | EC50 [1, 3] [nM] | EC50 ([1]; THP-1, 18 h) [nM] |
| --- | --- | --- | --- | --- | --- |
| Cc1nc2c(C(F)(F)F)cccc2nc1-c1ccc(-c2cccc(S(C)(=O)=O)c2)cc1 [Example 1, 3-methyl-2-[3′-(methylsulfonyl)biphenyl-4-yl]-5-(trifluoromethyl)quinoxaline] | 49 | 752 | 79 | 1090 | – |
| Cc1nc2c(C(F)(F)F)cccc2nc1-c1cc(Oc2cccc(S(=O)(=O)CCCC#N)c2)ccc1Cl [Example 77, 4-[(3-{4-chloro-3-[3-methyl-5-(trifluoromethyl)quinoxalin-2-yl]phenoxy}phenyl)sulfonyl]-butanenitrile] | 128 | 405 | 45 | 4420 | – |
| CNS(=O)(=O)c1cccc(-c2ccc(-c3nc4cccc(C(F)(F)F)c4nc3C)cc2)c1 [Example 53, N-methyl-4′-[3-methyl-5-(trifluoromethyl)quinoxalin-2-yl]biphenyl-3-sulfonamide] | – | > 1000 | 55 | – | 1400 |
| CCS(=O)(=O)c1cccc(-c2ccc(-c3nc4cccc(C(F)(F)F)c4nc3C)cc2)c1 [Example 31, 2-[3′-(ethylsulfonyl)biphenyl-4-yl]-3-methyl-5-(trifluoromethyl)quinoxaline] | – | 265 | 65 | – | 890 |
